Among the data in ChEMBL document CHEMBL3039007, “Structure-based identification of OATP1B1/3 inhibitors” (Mol Pharmacol, 2013) are residual activity values, retold here.

Data set [1] has as its target T1, Solute carrier organic anion transporter family member 1B3 (Homo sapiens, UniProt Q9NPD5).
T1 sequence (Q9NPD5 whole entry): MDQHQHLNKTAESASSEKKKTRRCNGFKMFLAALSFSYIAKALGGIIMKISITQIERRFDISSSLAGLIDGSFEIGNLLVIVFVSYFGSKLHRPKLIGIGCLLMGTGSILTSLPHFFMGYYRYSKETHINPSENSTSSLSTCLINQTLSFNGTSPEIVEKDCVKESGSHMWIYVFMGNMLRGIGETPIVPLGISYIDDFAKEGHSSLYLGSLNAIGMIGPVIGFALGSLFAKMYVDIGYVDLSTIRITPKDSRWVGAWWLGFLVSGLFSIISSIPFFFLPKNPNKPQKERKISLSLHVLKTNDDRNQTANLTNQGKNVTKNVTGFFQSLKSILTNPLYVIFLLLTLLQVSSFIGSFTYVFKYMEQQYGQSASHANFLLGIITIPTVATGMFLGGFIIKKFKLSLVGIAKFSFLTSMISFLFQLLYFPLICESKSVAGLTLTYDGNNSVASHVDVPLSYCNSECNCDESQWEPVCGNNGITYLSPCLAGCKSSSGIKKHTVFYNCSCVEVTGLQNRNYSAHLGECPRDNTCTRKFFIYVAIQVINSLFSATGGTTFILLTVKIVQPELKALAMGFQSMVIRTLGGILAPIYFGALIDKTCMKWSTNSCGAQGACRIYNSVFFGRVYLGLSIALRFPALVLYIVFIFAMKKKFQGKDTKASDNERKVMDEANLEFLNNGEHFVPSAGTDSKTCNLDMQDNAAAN
The following applies: chinese hamster, cho, 10 µM.

For data set [2], the target named is T2, Solute carrier organic anion transporter family member 1B1 (Homo sapiens, UniProt Q9Y6L6).
T2 sequence (Q9Y6L6 whole entry): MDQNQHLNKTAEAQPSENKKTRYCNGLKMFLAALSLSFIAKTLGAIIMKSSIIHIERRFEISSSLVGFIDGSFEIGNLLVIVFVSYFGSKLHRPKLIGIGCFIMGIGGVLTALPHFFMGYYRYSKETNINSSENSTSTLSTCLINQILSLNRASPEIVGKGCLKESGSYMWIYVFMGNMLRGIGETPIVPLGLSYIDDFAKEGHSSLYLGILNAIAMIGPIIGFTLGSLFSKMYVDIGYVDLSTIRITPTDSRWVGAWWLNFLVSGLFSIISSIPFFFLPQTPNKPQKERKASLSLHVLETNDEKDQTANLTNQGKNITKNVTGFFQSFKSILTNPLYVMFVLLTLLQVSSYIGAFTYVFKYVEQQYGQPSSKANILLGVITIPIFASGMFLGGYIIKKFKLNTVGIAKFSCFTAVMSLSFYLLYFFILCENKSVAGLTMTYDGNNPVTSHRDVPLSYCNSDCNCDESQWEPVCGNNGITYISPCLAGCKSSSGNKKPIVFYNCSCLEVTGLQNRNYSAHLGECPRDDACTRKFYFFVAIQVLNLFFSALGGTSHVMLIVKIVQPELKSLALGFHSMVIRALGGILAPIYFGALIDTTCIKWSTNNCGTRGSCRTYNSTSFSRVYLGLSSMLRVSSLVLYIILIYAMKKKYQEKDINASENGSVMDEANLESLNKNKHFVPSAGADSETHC
The settings on record: chinese hamster, cho, 10 µM.

Broadly, the residual activity is the signal under treatment as a percentage of the control signal.

As for `C=CC(C1=CC(=O)C(OC)=CC1=O)c1ccc(O)cc1` (centres undefined) [DALBERGIONE, 4-METHOXY-4'-HYDROXY-], the values for the residual activity in data set [1] and in data set [2] were 246.6% and 114.1%, respectively.

`C=CC(C1=CC(=O)C=CC1=O)c1ccccc1` (centres undefined) [DALBERGIONE]: the residual activity in data set [1] turned out to be 269.8%; in data set [2], 72.19%.

As to `C#C[C@]1(O)CC[C@H]2[C@@H]3CCC4=Cc5oncc5C[C@]4(C)[C@H]3CC[C@@]21C` [DANAZOL], the results for the residual activity in data set [1] and in data set [2] were 95.7% and 80.9%, respectively.

On to `O=C1CN(/N=C/c2ccc(-c3ccc([N+](=O)[O-])cc3)o2)C(=O)[N-]1.[Na+]` [DANTROLENE SODIUM], for which the residual activity in data set [1] was found to be 114.3%; in data set [2], 111.7%.

In the case of `O=c1ccc2ccc(O)c(O)c2o1` [DAPHNETIN], the results for the residual activity in data set [1] and in data set [2] were 94.36% and 66.34%, respectively.

With `Nc1ccc(S(=O)(=O)c2ccc(N)cc2)cc1` [DAPSONE], the results for the residual activity in data set [1] and in data set [2] were 84.17% and 78.21%, respectively.

In the case of `CN(C)C(=O)Nc1ccc(Cl)c(Cl)c1` [DCMU], the results for the residual activity in data set [1] and in data set [2] were 99% and 105.4%, respectively.

For the compound `CC1(C)C(=O)C=C[C@]2(C)[C@H]3CC[C@@]4(C)[C@H](c5ccoc5)OC(=O)[C@H]5O[C@]54[C@]3(C)C(=O)C[C@@H]12` [DEACETOXY-7-OXOGEDUNIN], the results for the residual activity in data set [1] and in data set [2] were 85.14% and 40.28%, respectively.

In the case of `CC1(C)C(=O)C=C[C@]2(C)[C@H]3CC[C@@]4(C)[C@H](c5ccoc5)OC(=O)[C@H]5O[C@]54[C@]3(C)[C@H](O)C[C@@H]12` [DEACETYLGEDUNIN], the results for the residual activity in data set [1] and in data set [2] were 60.92% and 74.35%, respectively.

Turning to `CC(=O)N(O)CCCCCNC(=O)CCC(=O)N(O)CCCCCNC(=O)CCC(=O)N(O)CCCCCN.CS(=O)(=O)O` [DEFEROXAMINE MESYLATE], the residual activity worked out at 98.92% in data set [1] and 116.4% in data set [2].

`COc1cc2c(cc1OC)[C@@H]1C(=O)c3ccc4c(c3O[C@@H]1CO2)C=CC(C)(C)O4` [DEGUELIN]: the residual activity in data set [1] came to 75.69%; in data set [2], 99.89%.

As to `CC(C)c1ccc2c(c1)CC[C@H]1[C@](C)(C(N)=O)CCC[C@]21C` [DEHYDROABIETAMIDE], the residual activity is 106.2% in data set [1] and 81.19% in data set [2].

Consider `C=CCCCCCCCCCCC/C=C/C(O)COC(C)=O` (centres undefined) [DEHYDROAVOCATIN-1-ACETATE], for which the residual activity in data set [1] worked out at 107.3%; in data set [2], 134.1%.

As to `C[C@H](CCC(=O)O)[C@H]1CC[C@H]2[C@@H]3C(=O)C[C@@H]4CC(=O)CC[C@]4(C)[C@H]3CC(=O)[C@]12C` [DEHYDROCHOLIC ACID], the residual activity in data set [1] turned out to be 88.23%; in data set [2] it was 80.16%.

For `COc1cc2c(cc1OC)-c1c(oc3c4c(ccc3c1=O)OC(C(C)C)C4)CO2` (centres undefined) [DEHYDRODIHYDROROTENONE], the results for the residual activity in data set [1] and in data set [2] were 95.69% and 89.82%, respectively.

With `CC(=O)O[C@H]1CC[C@@]2(C)C(=CC[C@@H]3[C@@H]2CC[C@]2(C)C(=O)CC[C@@H]32)C1` [DEHYDROEPIANDROSTERONE ACETATE], the residual activity came to 140.4% in data set [1] and 97.61% in data set [2].

As for `C=C(C)[C@H]1Cc2c(ccc3c(=O)c4c(oc23)COc2cc(OC)c(OC)cc2-4)O1` [DEHYDROROTENONE], the residual activity in data set [1] was determined as 92.82%; in data set [2], 113.5%.

On to `COc1ccc2c(c1)OCc1c-2oc2cc(OC)ccc12` [DEHYDROVARIABILIN], for which the residual activity in data set [1] is recorded as 89.07%; in data set [2], 136.9%.

On to `CCN1C[C@]2(C)CC[C@H](OC)[C@@]34C1[C@]1(OCO[C@@]15C[C@H](OC)[C@H]1C[C@]3(O)[C@@H]5[C@H]1OC)[C@@H](OC(C)=O)[C@H]24` [DELTALINE], for which the residual activity in data set [1] worked out at 103.5%; in data set [2] it was 88.11%.

On to `CN(C)[C@@H]1C(O)=C(C(N)=O)C(=O)[C@@]2(O)C(O)=C3C(=O)c4c(O)ccc(Cl)c4[C@@H](O)[C@H]3C[C@@H]12.Cl` [DEMECLOCYCLINE HYDROCHLORIDE], for which the figures for the residual activity in data set [1] and in data set [2] were 90.61% and 104.7%, respectively.

Take `Nc1ncnc2c1ncn2[C@H]1C[C@H](O)[C@@H](CO)O1` [DEOXYADENOSINE]: the results for the residual activity in data set [1] and in data set [2] were 106.4% and 112.3%, respectively.

Take `CC1(C)C2CC(=O)O[C@@]3(C)C4=CC(=O)O[C@@H](c5ccoc5)[C@]4(C)CCC3[C@@]2(C)C=C[C@H]1O` (some centres undefined) [DEOXYANDIROBIN LACTONE]: the results for the residual activity in data set [1] and in data set [2] were 53.06% and 29.53%, respectively.

On to `C=C1C2=CC(=O)O[C@@H](c3ccoc3)[C@]2(C)CCC1[C@@]1(C)C=CC(=O)C(C)(C)[C@@H]1CC(=O)OC` (some centres undefined) [DEOXYANDIROBIN], for which the residual activity turned out to be 42.8% in data set [1] and 27.69% in data set [2].

Consider `CC(=O)O[C@@H]1C=C[C@]2(C)C(C[C@@H](OC(C)=O)[C@]3(C)C4=CC(=O)O[C@H](c5ccoc5)[C@@]4(C)CCC23)C1(C)C` (some centres undefined) [DEOXYGEDUNOL ACETATE], for which the residual activity in data set [1] is listed as 49.18%; in data set [2], 23.25%.

As for `Nc1nc2c(ncn2[C@H]2C[C@H](O)[C@@H](CO)O2)c(=O)[nH]1` [DEOXYGUANOSINE], the residual activity is 90.97% in data set [1] and 85.51% in data set [2].

As for `COc1ccc2c(c1)OCC(Cc1ccc(OC)c(OC(C)=O)c1)C2=O` (centres undefined) [DEOXYSAPPANONE B 7,3'-DIMETHYL ETHER ACETATE], the residual activity in data set [1] is on record as 148.3%; in data set [2] it was 122.7%.

With `COc1ccc2c(c1)OCC(Cc1ccc(OC)c(OC)c1)C2=O` (centres undefined) [DEOXYSAPPANONE B TRIMETHYL ETHER], the residual activity in data set [1] was 150.7%; in data set [2], 174.5%.

For the compound `Cc1cc(N)c2ccccc2[n+]1CCCCCCCCCC[n+]1c(C)cc(N)c2ccccc21.[Cl-].[Cl-]` [DEQUALINIUM CHLORIDE], the values for the residual activity in data set [1] and in data set [2] were 111.4% and 158.8%, respectively.

`COc1ccc(-c2cc(C(F)F)nn2-c2ccc(S(N)(=O)=O)cc2)cc1F` [DERACOXIB]: the values for the residual activity in data set [1] and in data set [2] were 98.95% and 127.8%, respectively.

Turning to `CC(C)=CCc1c(O)cc2occ(-c3ccc4c(c3)OCO4)c(=O)c2c1O` [DERRUBONE], the residual activity in data set [1] stood at 106.9%; in data set [2] it was 115.1%.

For the compound `COc1cc(OC)c2c(OC)c(-c3ccc4c(c3)OCO4)c(=O)oc2c1` [DERRUSNIN], the residual activity in data set [1] worked out at 115.7%; in data set [2], 141.7%.

Regarding `COc1cc(OC)c2c(=O)c(-c3ccc4c(c3)OCO4)coc2c1` [DERRUSTONE], the values for the residual activity in data set [1] and in data set [2] were 94.69% and 132.5%, respectively.

Turning to `CC1=CC(=O)C2=C(C)CC[C@@H]3[C@H](OC(=O)[C@H]3C)[C@@H]12` [DESACETOXYMATRICARIN], the residual activity worked out at 118.5% in data set [1] and 129% in data set [2].

Regarding `CNCCCN1c2ccccc2CCc2ccccc21.Cl` [DESIPRAMINE HYDROCHLORIDE], the residual activity stood at 96.51% in data set [1] and 55.55% in data set [2].

`Cl.c1ccc2c(c1)CN1CCCC1=N2` [DESOXYPEGANINE HYDROCHLORIDE]: the residual activity turned out to be 113.9% in data set [1] and 132% in data set [2].

For the compound `CC(=O)OCC(=O)[C@@]1(O)[C@H](C)C[C@H]2[C@@H]3CCC4=CC(=O)C=C[C@]4(C)[C@@]3(F)[C@@H](O)C[C@@]21C` [DEXAMETHASONE ACETATE], the residual activity stood at 88.69% in data set [1] and 106% in data set [2].

Turning to `CN(C)CC[C@@H](c1ccc(Cl)cc1)c1ccccn1.O=C(O)/C=C\C(=O)O` [DEXCHLORPHENIRAMINE MALEATE], the results for the residual activity in data set [1] and in data set [2] were 103.6% and 117.7%, respectively.
